# “Also recorded” adds a separate entry of the source. Where a name gives a salt, the structure may show the parent alone.
# Tests used:
# C. elegans [1] = assay: Muscimol effect on rate of pharyngeal contractions (plates with food); type: in vivo, Caenorhabditis elegans; settings: N2 and eg814, plates with 0, 0.1 and 1 mM muscimol, 20 and 45 minutes
# C. elegans [2] = assay: Growth of worms on agar plates containing amphetamine
# C. elegans [3] = assay: Acute amphetamine assay of pharyngeal pumping (90 minutes in M9 buffer); type: in vivo, Caenorhabditis elegans
# C. elegans [4] = assay: Chronic effect of amphetamine on pharyngeal pumping (plates, 20 hours); type: in vivo, Caenorhabditis elegans; settings: 5 mM amphetamine plates
SMILES,inhibition of pumping (C. elegans [1]),"gravid adults (C. elegans [2]; eg814 mutant, 5 mM amph, plated at first larval stage, after 5 days)","growth rates (C. elegans [2]; eg814 mutant, 5 mM amphetamine)","growth of worms (C. elegans [2]; long-term exposure, millimolar levels of amphetamine in agar plates)","animals reaching adulthood (C. elegans [2]; wild-type (N2), 5 mM amphetamine plates, after 5 days)","pharyngeal contractions, acute effect (C. elegans [3]; N2, 90 minutes in solution of 0, 5 and 10 mM amph)","pharyngeal contractions, acute effect (C. elegans [3]; eg814 mutant, 90 minutes in solution of 0, 5 and 10 mM amph)","rate of pharyngeal contractions (C. elegans [4]; N2, first day adults)","rate of pharyngeal contractions (pumping) (C. elegans [4]; eg814 mutant, first day adults)"
NCc1cc(=O)[nH]o1 [muscimol],exhibited similar inhibition of pumping after both 20 and 45 minutes; also recorded: inhibited pumping in both N2 and eg814 worms with a very similar dose response,,,,,,,,
"C[C@H](N)Cc1ccccc1 [amphetamine, d-amphetamine sulfate]",,~100%,unaffected growth rates,dramatically suppressed the growth of worms,no wild-type animals are adults,inhibits pharyngeal contractions of N2 worms in a dose-dependent manner,exhibits resistance to acute amphetamine,greatly reduced rate of pharyngeal contractions,sustained resistance to the inhibition of pumping

# Reference: patent US20070010444A1, “Novel mediator of neurotransmitter and psychostimulant responses” (The Regents of the University of California, priority 2005, published 2007)
